Test results reported in ChEMBL document CHEMBL3272271, “Folate antagonists. 13. 2,4-Diamino-6-](alpha,alpha,alpha-trifluoro-m-tolyl)thio]quinazoline and related 2,4-diamino-6-[(phenyl- and naphthyl)thio]quinazolines, a unique class of antimetabolites with extraordinary antimalarial and antibacterial effects” (J Med Chem, 1978).
≈ marks a conversion by molar mass, not a printed value. Calls of active or inactive are those of the source. The rule behind the calls is not given here.

Experiments:
[1] = system: Enterococcus faecalis; assay: Antibacterial activity against Streptococcus faecalis MGH-2 by gradient plate test; format: functional
[2] = system: Staphylococcus aureus; assay: Antibacterial activity against Staphylococcus aureus UC-96 by gradient plate test; format: functional
[3] = system: Staphylococcus aureus; assay: Antibacterial activity against drug-resistant Staphylococcus aureus S18713 by gradient plate test; format: functional
[4] = system: Pseudomonas aeruginosa; assay: Antibacterial activity against Pseudomonas aeruginosa 28 by gradient plate test; format: functional
[5] = system: Escherichia coli; assay: Antibacterial activity against Escherichia coli Vogel by gradient plate test; format: functional
[6] = system: Shigella sonnei; assay: Antibacterial activity against Shigella sonnei C-10 by gradient plate test; format: functional
[7] = system: Mycobacterium tuberculosis; assay: Antibacterial activity against Mycobacterium tuberculosis H37Ra by gradient plate test; format: functional
[8] = system: Plasmodium berghei; assay: Antimalarial activity against Plasmodium berghei infected in mouse assessed as increase in mean survival days of host at 20 mg/kg, sc administered 72 hrs after infection relative to control; format: functional; settings: route subcutaneous
[9] = system: Plasmodium berghei; assay: Antimalarial activity against Plasmodium berghei infected in mouse assessed as increase in mean survival days of host at 10 mg/kg, sc administered 72 hrs after infection relative to control; format: functional; settings: route subcutaneous
[10] = system: Plasmodium berghei; assay: Antimalarial activity against Plasmodium berghei infected in mouse assessed as increase in mean survival days of host at 5 mg/kg, sc administered 72 hrs after infection relative to control; format: functional; settings: route subcutaneous
[11] = system: Plasmodium berghei; assay: Antimalarial activity against Plasmodium berghei infected in mouse assessed as increase in mean survival days of host at 2.5 mg/kg, sc administered 72 hrs after infection relative to control; format: functional; settings: route subcutaneous
[12] = system: Plasmodium berghei; assay: Antimalarial activity against Plasmodium berghei infected in mouse assessed as increase in mean survival days of host at 1.25 mg/kg, sc administered 72 hrs after infection relative to control; format: functional; settings: route subcutaneous
[13] = system: Plasmodium berghei; assay: Antimalarial activity against Plasmodium berghei infected in mouse assessed as disease cure from parasite infection at 640 mg/kg, sc administered 72 hrs after infection; format: functional, organism-based; set-up: dose 640 mg/kg
[14] = system: Plasmodium berghei; assay: Antimalarial activity against Plasmodium berghei infected in mouse assessed as disease cure from parasite infection at 320 mg/kg, sc administered 72 hrs after infection; format: functional, organism-based; set-up: dose 320 mg/kg
[15] = system: Plasmodium berghei; assay: Antimalarial activity against Plasmodium berghei infected in mouse assessed as disease cure from parasite infection at 160 mg/kg, sc administered 72 hrs after infection; format: functional, organism-based; set-up: dose 160 mg/kg
[16] = system: Plasmodium berghei; assay: Antimalarial activity against Plasmodium berghei infected in mouse assessed as disease cure from parasite infection at 80 mg/kg, sc administered 72 hrs after infection; format: functional, organism-based; set-up: dose 80 mg/kg
[17] = system: Plasmodium berghei; assay: Antimalarial activity against Plasmodium berghei infected in mouse assessed as disease cure from parasite infection at 40 mg/kg, sc administered 72 hrs after infection; format: functional, organism-based; set-up: dose 40 mg/kg
[18] = system: Plasmodium berghei; assay: Antimalarial activity against Plasmodium berghei infected in mouse assessed as disease cure from parasite infection at 20 mg/kg, sc administered 72 hrs after infection; format: functional, organism-based; set-up: dose 20 mg/kg
[19] = system: Plasmodium berghei; assay: Antimalarial activity against Plasmodium berghei infected in mouse assessed as disease cure from parasite infection at 10 mg/kg, sc administered 72 hrs after infection; format: functional, organism-based; set-up: dose 10 mg/kg
[20] = system: Plasmodium berghei; assay: Antimalarial activity against Plasmodium berghei infected in mouse assessed as disease cure from parasite infection at 5 mg/kg, sc administered 72 hrs after infection; format: functional, organism-based; set-up: dose 5 mg/kg
[21] = system: Gallus gallus; assay: Toxicity in sporozoite-induced Plasmodium gallinaceum infected white leghorn chicken assessed as mortality at 480 mg/kg, sc administered 72 hrs after infection measured up to 6 days; format: organism-based; set-up: dose 480 mg/kg, route subcutaneous; settings: in vivo
[22] = system: Plasmodium gallinaceum; assay: Antimalarial activity against sporozoite-induced Plasmodium gallinaceum infected in white leghorn chicken assessed as increase in mean survival days of host at 240 mg/kg, sc administered 72 hrs after infection relative to control; format: functional; settings: route subcutaneous
[23] = system: Gallus gallus; assay: Toxicity in sporozoite-induced Plasmodium gallinaceum infected white leghorn chicken assessed as mortality at 240 mg/kg, sc administered 72 hrs after infection measured up to 6 days; format: organism-based; set-up: dose 240 mg/kg, route subcutaneous; settings: in vivo
[24] = system: Plasmodium gallinaceum; assay: Antimalarial activity against sporozoite-induced Plasmodium gallinaceum infected in white leghorn chicken assessed as increase in mean survival days of host at 120 mg/kg, sc administered 72 hrs after infection relative to control; format: functional; settings: route subcutaneous
[25] = system: Plasmodium berghei; assay: Antimalarial activity against Plasmodium berghei infected in mouse assessed as increase in mean survival days of host at 320 mg/kg, sc administered 72 hrs after infection relative to control; format: functional; settings: route subcutaneous
[26] = system: Plasmodium berghei; assay: Antimalarial activity against Plasmodium berghei infected in mouse assessed as increase in mean survival days of host at 160 mg/kg, sc administered 72 hrs after infection relative to control; format: functional; settings: route subcutaneous
[27] = system: Plasmodium berghei; assay: Antimalarial activity against Plasmodium berghei infected in mouse assessed as increase in mean survival days of host at 80 mg/kg, sc administered 72 hrs after infection relative to control; format: functional; settings: route subcutaneous
[28] = system: Plasmodium berghei; assay: Antimalarial activity against Plasmodium berghei infected in mouse assessed as increase in mean survival days of host at 40 mg/kg, sc administered 72 hrs after infection relative to control; format: functional; settings: route subcutaneous
[29] = system: Plasmodium berghei; assay: Antimalarial activity against trophozoite-induced Plasmodium berghei infected in mouse assessed as daily dose required to suppression of 90% parasite infection administered with diet for 6 days; format: functional
[30] = system: Plasmodium berghei; assay: Ratio of quinine hydrochloride SD90 to compound SD90 for trophozoite-induced Plasmodium berghei infected in mouse assessed as daily dose required to suppression of 90% parasite infection administered with diet for 6 days; format: functional
[31] = system: Plasmodium gallinaceum; assay: Antimalarial activity against trophozoite-induced Plasmodium gallinaceum infected in white leghorn chicken assessed as increase in mean survival days of host at 320 mg/kg, sc administered 72 hrs after infection relative to control; format: functional; settings: route subcutaneous
[32] = system: Plasmodium gallinaceum; assay: Antimalarial activity against trophozoite-induced Plasmodium gallinaceum infected in white leghorn chicken assessed as increase in mean survival days of host at 160 mg/kg, sc administered 72 hrs after infection relative to control; format: functional; settings: route subcutaneous
[33] = system: Plasmodium gallinaceum; assay: Antimalarial activity against trophozoite-induced Plasmodium gallinaceum infected in white leghorn chicken assessed as increase in mean survival days of host at 80 mg/kg, sc administered 72 hrs after infection relative to control; format: functional; settings: route subcutaneous
[34] = system: Plasmodium gallinaceum; assay: Antimalarial activity against trophozoite-induced Plasmodium gallinaceum infected in white leghorn chicken assessed as increase in mean survival days of host at 40 mg/kg, sc administered 72 hrs after infection relative to control; format: functional; settings: route subcutaneous
[35] = system: Plasmodium gallinaceum; assay: Antimalarial activity against trophozoite-induced Plasmodium gallinaceum infected in white leghorn chicken assessed as increase in mean survival days of host at 20 mg/kg, sc administered 72 hrs after infection relative to control; format: functional; settings: route subcutaneous
[36] = system: Plasmodium gallinaceum; assay: Antimalarial activity against trophozoite-induced Plasmodium gallinaceum infected in white leghorn chicken assessed as increase in mean survival days of host at 10 mg/kg, sc administered 72 hrs after infection relative to control; format: functional; settings: route subcutaneous

Nc1nc(N)c2c(Cl)c(Sc3ccc4ccccc4c3)ccc2n1 showed an MIC [1] of less than 0.25 µg/mL, an MIC [2] of 1.5 µg/mL (≈ 4.25 µM) and an MIC [3] of 5 µg/mL (≈ 14.2 µM). The MIC [4] was greater than 25 µg/mL, the MIC [5] was 10 µg/mL (≈ 28.3 µM) and the MIC [6] was greater than 25 µg/mL. For the same molecule, the MIC [7] was 10 µg/mL (≈ 28.3 µM), the MST [8] was 15.9 days and the MST [9] was 15.9 days. For the same molecule, the MST [10] was 12.7 days, the MST [11] was 7.9 days and the MST [12] was 5.5 days. For the same molecule, the Activity [13] was “Active”, the Activity [14] was “Active” and the Activity [15] was “Active”. For the same molecule, the Activity [16] was “Active”, the Activity [17] was “Active” and the Activity [18] was “Active”. The Activity [19] was “Active” and the Activity [20] was “Active”.

Nc1nc(N)c2cc(Sc3ccccc3)ccc2n1 showed an MIC [1] of less than 0.25 µg/mL, an MIC [2] of less than 0.25 µg/mL and an MIC [3] of less than 0.25 µg/mL. It also gave an MIC [4] greater than 25 µg/mL, an MIC [5] of less than 0.25 µg/mL and an MIC [6] of less than 0.25 µg/mL. The Activity [21] was “Toxic”, the MST [22] was 1.6 days and the Activity [23] was “Toxic”. The MST [24] was 2.4 days, the MST [25] was 14.7 days and the MST [26] was 14 days. For the same molecule, the MST [27] was 9.7 days, the MST [28] was 6.3 days and the MST [8] was 4.7 days. The MST [9] was 3.3 days, the MST [10] was 1.1 days and the Activity [14] was “Active”. For the same molecule, the Activity [15] was “Active”, the SD90 [29] was 8.2 mg/kg/day and the Ratio [30] was 9.1. The MST [31] was 11.4 days, the MST [32] was 7.8 days and the MST [33] was 6.4 days. It also gave an MST [34] of 6.2 days, an MST [35] of 5.6 days and an MST [36] of 0 days.
